Measured values: PMC2728345 (Toxicology and applied pharmacology, 2009)
Residue numbers refer to the chain shown, from its start. “Also recorded” adds a separate entry of the source. Like-named read-outs stand apart in the source and are kept apart here.

Tests used:
carboxylesterase HCE1 = target: T1, carboxylesterase HCE1 (Homo sapiens, UniProt P23141); test: Hydrolysis of pyrethroids by recombinant HCE1; type: in vitro ADME; settings: recombinant HCE1 vs HCE2 lysates, Tris-HCl pH 7.4
T1 sequence (P23141 18-567): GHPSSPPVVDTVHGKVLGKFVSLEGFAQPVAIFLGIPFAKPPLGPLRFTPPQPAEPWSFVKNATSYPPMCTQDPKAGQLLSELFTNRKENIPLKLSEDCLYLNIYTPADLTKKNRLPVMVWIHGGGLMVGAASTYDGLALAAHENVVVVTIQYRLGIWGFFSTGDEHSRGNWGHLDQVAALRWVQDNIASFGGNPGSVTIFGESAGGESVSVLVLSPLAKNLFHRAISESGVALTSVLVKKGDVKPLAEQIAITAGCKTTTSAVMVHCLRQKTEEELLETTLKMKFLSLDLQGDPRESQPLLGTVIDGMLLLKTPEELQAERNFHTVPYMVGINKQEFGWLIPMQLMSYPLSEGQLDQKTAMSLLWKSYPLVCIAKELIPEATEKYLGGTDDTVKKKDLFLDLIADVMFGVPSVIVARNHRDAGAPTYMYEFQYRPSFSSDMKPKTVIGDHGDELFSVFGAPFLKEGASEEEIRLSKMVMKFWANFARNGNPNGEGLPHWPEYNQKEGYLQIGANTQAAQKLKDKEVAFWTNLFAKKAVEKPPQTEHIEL

rats or mice = settings: in vivo, po; cited from earlier work
human PXR variant S208F [1] = target: T2, human PXR variant S208F (Homo sapiens, UniProt O75469, S208F); settings: HepG2 cotransfection, 10 µM, 24 h; words: compared with wild-type PXR
T2 sequence (O75469 1-434 S208F): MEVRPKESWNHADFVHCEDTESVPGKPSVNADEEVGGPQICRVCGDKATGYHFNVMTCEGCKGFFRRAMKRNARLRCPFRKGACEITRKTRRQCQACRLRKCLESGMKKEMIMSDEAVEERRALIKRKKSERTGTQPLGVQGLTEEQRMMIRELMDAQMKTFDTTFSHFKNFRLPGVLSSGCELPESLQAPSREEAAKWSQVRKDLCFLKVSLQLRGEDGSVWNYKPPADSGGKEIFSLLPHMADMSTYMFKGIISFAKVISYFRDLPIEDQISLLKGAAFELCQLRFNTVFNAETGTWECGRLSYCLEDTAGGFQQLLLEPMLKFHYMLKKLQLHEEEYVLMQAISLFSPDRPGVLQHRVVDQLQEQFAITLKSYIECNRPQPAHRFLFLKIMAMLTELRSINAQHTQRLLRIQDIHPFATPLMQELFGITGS

human PXR [2] = target: T3, human PXR (Homo sapiens, UniProt O75469); test: Activation of human PXR in stable line hPXR-HRE; settings: 10 µM, 24 h, ratio over DMSO
T3 sequence (O75469 1-434): T2 sequence (O75469 1-434 S208F) with F208S

HCE2 = HCE2 expression in human primary hepatocytes; type: cell-based; settings: 10 µM, 24 h
human PXR [3] = target: T3, human PXR; test: Activation of human PXR in hPXR-HRE cells transfected with HCE1, HCE2 or vector; settings: 10 µM; for effect of carboxylesterase cotransfection on PXR activation: hPXR-HRE cells transfected with HCE1 or HCE2 vs vector; for decrease in PXR activation, HCE1 versus HCE2 cotransfection: hPXR-HRE cells
CYP3A4 = CYP3A4 expression in human primary hepatocytes; settings: 10 µM, 24 h
[4] = 50 µg protein, pyrethroid 200 µM mixed with equal volume, Tris-HCl pH 7.4, 37°C
human PXR variant L412I = target: T4, human PXR variant L412I (Homo sapiens, UniProt O75469, L412I); settings: HepG2 cotransfection, 10 µM, 24 h
T4 sequence (O75469 1-434 L412I): T2 sequence (O75469 1-434 S208F) with F208S, L412I

human PXR variant S208F [5] = target: T2, human PXR variant S208F
carboxylesterase HCE2 [6] = target: T5, carboxylesterase HCE2 (Homo sapiens, UniProt O00748); test: Hydrolysis of pyrethroids by recombinant HCE2; type: in vitro ADME; settings: recombinant HCE2 vs HCE1 lysates, Tris-HCl pH 7.4
T5 sequence (O00748 27-559): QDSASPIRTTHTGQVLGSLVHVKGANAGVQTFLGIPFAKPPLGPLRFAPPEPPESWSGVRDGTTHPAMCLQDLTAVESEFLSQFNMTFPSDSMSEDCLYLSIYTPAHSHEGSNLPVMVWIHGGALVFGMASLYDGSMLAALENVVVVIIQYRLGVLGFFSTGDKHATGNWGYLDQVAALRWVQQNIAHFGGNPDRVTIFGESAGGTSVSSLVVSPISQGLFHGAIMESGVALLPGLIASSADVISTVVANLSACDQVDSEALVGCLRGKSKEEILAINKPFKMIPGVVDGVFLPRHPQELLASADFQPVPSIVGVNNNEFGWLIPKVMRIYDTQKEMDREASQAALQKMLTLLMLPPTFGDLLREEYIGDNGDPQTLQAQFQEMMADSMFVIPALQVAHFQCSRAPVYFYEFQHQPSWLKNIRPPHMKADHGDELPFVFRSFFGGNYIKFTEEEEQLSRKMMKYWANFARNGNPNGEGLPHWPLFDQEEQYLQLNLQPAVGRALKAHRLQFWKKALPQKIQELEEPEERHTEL

carboxylesterase HCE2 [7] = target: T5, carboxylesterase HCE2; settings: Tris-HCl buffer pH 8.0; ref Nishi et al. (2006); cited from earlier work

Compound | preference for hydrolysis by HCE1 over HCE2 (words) (carboxylesterase HCE1) | LD50 (rats or mice) | activation of PXR variant S208F (human PXR variant S208F [1]) | activation of human PXR (human PXR [2]) | HCE2 protein (Western blotting) (HCE2) | effect of carboxylesterase cotransfection on PXR activation (human PXR [3]) | decrease in PXR activation, HCE1 versus HCE2 cotransfection (human PXR [3]) | CYP3A4 protein (Western blotting) (CYP3A4) | hydrolysis by pooled human liver microsomes (rate group / extent, in words) [4] | activation of PXR variant L412I compared with wild-type PXR (human PXR variant L412I) | activation of PXR variant S208F (human PXR variant S208F [5]) | preference for hydrolysis by HCE2 over HCE1 (carboxylesterase HCE2 [6]) | selective hydrolysis HCE2 vs HCE1 (literature) (carboxylesterase HCE2 [7])
CC1(C)[C@H](C(=O)O[C@H](C#N)c2cccc(Oc3ccccc3)c2)[C@@H]1/C=C(\Cl)C(F)(F)F (racemic) [lambda-Cyhalothrin] | HCE1 preferably hydrolyzed; also recorded: much more active than HCE2 | 56 mg/kg | no differences | stronger activator of human PXR | but not HCE1 or HCE2 protein | markedly decreased | much more decreases | significant increase | moderate rate | less extent than the wild-type PXR | – | – | –
CC1(C)C(C=C(Cl)Cl)C1C(=O)OC(C#N)c1ccc(F)c(Oc2ccccc2)c1 (stereo not shown) [Baythroid] | – | – | – | – | – | – | – | – | moderate rate | – | 10.6 fold | HCE2 preferably hydrolyzed | –
CC1(C)[C@H](C(=O)O[C@H](C#N)c2cccc(Oc3ccccc3)c2)[C@@H]1C=C(Br)Br [Deltamethrin] | much more active than HCE2; also recorded: preferably hydrolyzed by HCE1 | 535 mg/kg | – | – | – | markedly decreased | much more decreases | – | high rate | – | – | – | better substrate of HCE2
